“Also recorded” adds a separate entry of the source. The star is where a group is joined. X1 = 4‑(N,N-Bis(2-pyridylmethyl)aminomethyl)benzoyl, O=C(c1ccc(CN(Cc2ccccn2)Cc2ccccn2)cc1)*; 4‑(guanidinomethyl)benzoyl = N=C(N)NCc1ccc(C(=O)*)cc1
How the values were obtained:
AsPC-1 cells [1] = test: Cell proliferation assay, AsPC-1; assay type: cell-based; conditions: metastin 0, 100 μM, 1 μM and 10 μM for 48 hours and 96 hours, FIG. 3
Experimental: (§1) Pancreatic cancer cell lines AsPC-1, BxPC-3, Capan-2, CFPAC-1, Panc-1 and Suit-2 were purchased from the American Type Culture Collection. Cells were cultured as monolayers in the appropriate medium supplemented with 10% fetal bovine serum, 100 units/ml penicillin, and 100 μg/ml streptomycin at 37° C., in a humid atmosphere of 5% CO2/95% air. As for AsPC-1 and Panc-1, upon reaching 80% confluence, the medium was removed, the cells were washed in phosphate-buffered saline (PBS) and treated with increasing doses of metastin (Takeda Chemical Industries, Osaka, Japan) with 10% fetal bovine serum and protein was isolated 15 minutes later as described below.
(§2) For assaying proliferation, AsPC-1 and Panc-1 cells (1×10^4cells/3 cm diameter dish) were seeded in 10% FBS medium and incubated with increasing doses of metastin for 48 and 96 hours. Cells were trypsinized and cell numbers were counted using hematocytometer.

Panc-1 cells [2] = test: Cell proliferation assay, Panc-1; assay type: cell-based; conditions: for proliferation activity (cell growth): Panc-1 with KiSS-1 short derivatives, FIG. 7A
Experimental: as §1, §2

AsPC-1 cells [3] = test: Cell migration assay, AsPC-1; assay type: cell-based; conditions: metastin 0 μM, 100 μM, 1 μM, 10 μM for 12 hours, FIG. 4A
Experimental: (§3) A polyvinylpyrrolidone-free polycarbonate framed filter (8 μm pores) was set in a microchemotasis chamber (Corning Coster Corp., Cambridge, Mass.). Cells (2×10^6 cells in 200 μl RPMI1640 for AsPC-1 and in 200 μl DMEM for Panc-1) and peptide were added to the upper chamber and incubated at 37° C. for 12 hours to allow migration to the lower chamber, which contained 10% FBS/RPMI1640 for AsPC-1 or 5% FBS/DMEM for Panc-1 as a chemoattractant. After removing nonmigrating cells with a cotton swab from the upper surface of the membrane, cells on the lower surface were fixed, stained with Diff-Quick (International Reagent, Kobe, Japan). For quantification, cells were counted under a microscope in five predetermined fields at X200.

Panc-1 cells [4] = test: Cell migration assay, Panc-1; assay type: cell-based; conditions: for migration index: Panc-1 with KiSS-1 short derivatives, FIG. 7B
Experimental: as §3

AsPC-1 cells [5] = test: Matrigel invasion assay, AsPC-1; assay type: cell-based; conditions: 10 μM metastin, 12 hours, FIG. 4B
Experimental: (§4) Cells and peptide (2×10^6 cells in 200 μl RPMI1640 for AsPC-1 and in 200 μl DMEM for Panc-1) were added to a Matrigel-coated Transwell(8 μm pores,. Becton Dickinson Labware, Bedford, Mass.) and incubated at 37° C. for 12 hours versus a lower chamber containing 10% FBS/RPMI1640 for AsPC-1 or 5% FBS/DMEM for Panc-1. After removing the Matrigel and cells from the upper surface of the membrane, cells on the lower surface were fixed, stained with Diff-Quick and quantified the number as well. Invasion index was defined as the number of invasion cells per that of migrating cells.

Panc-1 cells [6] = test: Matrigel invasion assay, Panc-1; assay type: cell-based; conditions: 10 μM metastin, 12 hours, FIG. 4B
Experimental: as §4

[7] = test system: ERK1/2, p38 and JNK1/2 in AsPC-1 cells; test: MAPK activation by Western blot, AsPC-1; assay type: cell-based; conditions: 0-10 μM for 15 minutes, immunoblot
Experimental: as §1
Cells were collected into microtubes with a cell scraper and lysed for 60 min in phosphorylation-inhibitory RIPA buffer containing 50 mM HEPES (pH 7.0), 250 mM NaCl, 0.1% Nonidet P-40, 1 mM phenylmethylsulfonyl fluoride (PMSF) and 20 μg /ml gabexate mesilate, then the lysate was sonicated for 10 sec. […] Protein concentrations were measured using a protein assay kit (Tonein-TP, Otsuka Pharmaceutical, Tokyo, Japan). […] Protein expression was measured by ATTO densito-analyzer system AE-6920M (ATTO Corporation, Tokyo Japan) and the quantity was expressed numerically. The quantity of the target protein was divided by that of beta actin and relative intensities were obtained. […]

[8] = test system: ERK1/2, p38 and JNK1/2 in Panc-1 cells; test: MAPK activation by Western blot, Panc-1; assay type: cell-based; conditions: 15 minutes, immunoblot, FIG. 5, FIG. 7C
Experimental: as §1
Cells were collected into microtubes with a cell scraper and lysed for 60 min in phosphorylation-inhibitory RIPA buffer containing 50 mM HEPES (pH 7.0), 250 mM NaCl, 0.1% Nonidet P-40, 1 mM phenylmethylsulfonyl fluoride (PMSF) and 20 μg /ml gabexate mesilate, then the lysate was sonicated for 10 sec. Total extracts were cleaned by centrifugation at 12,000 rpm for 10 min at 4° C., the supernatants were collected. Protein concentrations were measured using a protein assay kit (Tonein-TP, Otsuka Pharmaceutical, Tokyo, Japan). The lysates were resuspended in one volume of the gel loading buffer which contained 50 mM Tris-HCl (pH 6.7), 4% SDS, 0.02% bromophenol blue, 20% glycerol and 4% 2-mercaptoethanol, and then boiled at 95° C. for 90 sec. The extracted protein was subjected to Western blotting, as previously described (Wada, M. et al., Pancreas. 15: 176-82., 1997). In brief, 30 μg aliquots of protein was size-fractionated to a single dimension by SDS-PAGE (12% gels) and transblotted to a 0.45 μm polyvinylidene difluoride membrane (Bio-Rad, Richmond, Calif.) in a semidry electroblot apparatus (Bio-Rad, Richmond, Calif.). The blots were, then washed three times with TBST buffer and incubated for two hours at RT in the first antibody solution containing anti-phosphoERK antibody (#pTEpY, Promega, Madison, Wis.), anti-phosphop38 MAPK (#pTGpY, Promega, Madison, Wis.) or anti-phosphoJNK(#pTPpY, Promega, Madison, Wis.), 0.2% I-block (Promega, Madison, Wis.). After three washings in TBST buffer, the blots were incubated for one hour at RT with horseradish peroxidase conjugated anti-rabbit IgG at a 1:2000 dilution with TBST buffer. After three washings in TBST buffer, membranes were treated with enhanced chemiluminescence reagents (Amersham Life Sciences, Amersham, UK) according to the manufacturer's protocol. Membranes were exposed to X-ray film for 5-60 seconds. Protein expression was measured by ATTO densito-analyzer system AE-6920M (ATTO Corporation, Tokyo Japan) and the quantity was expressed numerically. The quantity of the target protein was divided by that of beta actin and relative intensities were obtained.
To evaluate the signaling pathways activated by endogenous metastin receptors in pancreatic cancer, activation of MAPK was examined by treatment with metastin. Cells in exponential stage were incubated in serum containing medium and then transferred to the 1% BSA medium with metastin, as in the case of migration or invasion assay. After incubation with increasing dose of metastin (0 μM, 0.1 μM, 1 μM, 10 μM) for 15 minutes, activation of ERK1/2, p38 and JNK1/2 were measured by immunoblot (FIG. 5A).

[9] = test system: hOT7T175 transfected B16-BL6 melanomas; conditions: hOT7T175 transfected B16-BL6 melanomas in vivo; Ohtaki et al.; cited from earlier work
[10] = test system: hOT7T175 transfected Chinese hamster ovary (CHO) cells; conditions: hOT7T175 transfected CHO cells in vitro; Hori et al., Kotani et al.; cited from earlier work

metastin: 54 amino acid peptide with C-terminal amidation processed from KiSS-1; ligand of receptor hOT7T175 (AXOR12)
cell growth (AsPC-1 cells [1]): Neither AsPC-1 nor Panc-1 showed growth retardation | cell growth (Panc-1 cells [2]; Panc-1, metastin 0, 100 μM, 1 μM and 10 μM for 48 hours and 96 hours, FIG. 3): Neither AsPC-1 nor Panc-1 showed growth retardation | migratory activity (AsPC-1 cells [3]): little influenced | reduction of migratory activity (Panc-1 cells [4]; Panc-1, metastin 0 μM, 100 μM, 1 μM, 10 μM for 12 hours, p<0.01, FIG. 4A): up to 40% | invasion activity (invasion index) (AsPC-1 cells [5]): Invasion activity was not influenced | invasion activity (invasion index) (Panc-1 cells [6]): Invasion activity was not influenced | activation of ERK1 (pERK1) [7]: pERK1 was augmented | activation of JNK1/2 (pJNKs) [7]: no reduction or increase of pJNKs | activation of ERK1 (pERK1) [8]: pERK1 was augmented | activation of JNK1/2 (pJNKs) [8]: no reduction or increase of pJNKs | activation of p38 (pp38) [8]: Slight activation of p38 | pulmonary metastasis [9]: attenuates pulmonary metastasis | chemotaxis and invasion [10]: inhibit chemotaxis and invasion

4-[N,N-Bis(2 -pyridylmethyl)aminomethyl]benzoyl-Phe-Gly-Leu-Arg-Trp-NH2 (X1-FGLRW-NH2) [FM052a]
proliferation activity (cell growth) (Panc-1 cells [2]): cell growth was not affected | migration index (Panc-1 cells [4]): reduced the migration index; also recorded: nearly same activity with metastin | activation of ERK1 (pERK1) [8]: ERK1 activation was observed | activation of JNK1/2 (pJNKs) [8]: not augmented | activation of p38 (pp38) [8]: slightly activated

4-(guanidinomethyl) benzoyl-Phe-Gly-Leu-Arg-Trp-NH2 ({4‑(guanidinomethyl)benzoyl}-FGLRW-NH2) [FM053a]
proliferation activity (cell growth) (Panc-1 cells [2]): cell growth was not affected | migration index (Panc-1 cells [4]): reduced the migration index; also recorded: less suppressive than FM052a | activation of ERK1 (pERK1) [8]: less activation of pERK1 than FM052a | activation of JNK1/2 (pJNKs) [8]: not augmented | activation of p38 (pp38) [8]: slightly activated

Reference: patent US20040142875A1, “Metastin derivatives and their use” (priority 2003, published 2004)
